Data taken from patent US20230295200A1 (REGENTS OF THE UNIVERSITY OF MICHIGAN, priority 2022, published 2023).

Biological target: T1, STAT6 protein (Homo sapiens, UniProt P42226)
T1 sequence (P42226 1-847): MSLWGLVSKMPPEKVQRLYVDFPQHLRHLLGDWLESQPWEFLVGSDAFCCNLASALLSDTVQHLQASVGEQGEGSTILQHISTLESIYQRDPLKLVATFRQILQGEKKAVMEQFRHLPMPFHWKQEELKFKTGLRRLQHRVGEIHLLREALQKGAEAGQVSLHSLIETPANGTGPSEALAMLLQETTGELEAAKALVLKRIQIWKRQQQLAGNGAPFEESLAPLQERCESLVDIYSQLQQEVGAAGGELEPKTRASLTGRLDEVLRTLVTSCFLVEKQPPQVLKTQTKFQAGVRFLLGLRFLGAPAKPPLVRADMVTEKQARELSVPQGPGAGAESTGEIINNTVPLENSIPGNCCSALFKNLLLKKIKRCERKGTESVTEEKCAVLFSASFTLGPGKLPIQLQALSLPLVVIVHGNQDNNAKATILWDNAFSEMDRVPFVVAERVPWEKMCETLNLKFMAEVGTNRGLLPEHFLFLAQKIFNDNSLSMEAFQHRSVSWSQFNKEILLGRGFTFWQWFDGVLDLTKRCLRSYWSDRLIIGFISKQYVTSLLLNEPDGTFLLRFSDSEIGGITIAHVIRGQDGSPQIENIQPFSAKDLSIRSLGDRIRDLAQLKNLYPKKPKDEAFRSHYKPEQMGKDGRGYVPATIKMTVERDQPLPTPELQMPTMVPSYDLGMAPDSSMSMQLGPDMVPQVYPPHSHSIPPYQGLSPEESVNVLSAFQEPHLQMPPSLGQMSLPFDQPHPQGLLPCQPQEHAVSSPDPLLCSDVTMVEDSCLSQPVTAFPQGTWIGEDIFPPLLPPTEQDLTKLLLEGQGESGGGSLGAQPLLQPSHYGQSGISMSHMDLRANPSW
Assay: Fluorescence polarization (FP) binding assay, STAT6
Conditions: FP competition, 5 nM fluorescein-labeled tracer, 200 nM protein, PBS pH7.4; read-out: Binding STAT6
Summary of the method: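 Fluorescence polarization is read after STAT5 or STAT6 protein (200 nM) and a fluorescein-labeled tracer (5 nM) equilibrate for 1 h at room temperature in DTT-containing PBS pH 7.4 with BGG and Tween-20. Inhibition constants are obtained by nonlinear curve fitting.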

| SMILES | Ki |
| --- | --- |
| CC(=O)N1CC[C@H]2CC[C@@H](C(=O)NCc3ccccc3)N2C(=O)[C@@H](NC(=O)c2cc3cc(C(F)(F)P(=O)(O)O)ccc3[nH]2)C1 [Compound 335, ((2-(((5S,8S,10aR)-3-acetyl-8-(benzylcarbamoyl)-6-oxodecahydropyrrolo[1,2-a][1,5]diazocin-5-yl)carbamoyl)-1H-indol-5-yl)difluoromethyl)phosphonic acid] | > 10 µM |
| CC(=O)N1CC[C@H]2CC[C@@H](C(=O)N(C)Cc3ccccc3)N2C(=O)[C@@H](NC(=O)c2cc3cc(C(F)(F)P(=O)(O)O)ccc3[nH]2)C1 [Compound 336, ((2-(((5S,8S,10aR)-3-acetyl-8-(benzyl(methyl)carbamoyl)-6-oxodecahydropyrrolo[1,2-a][1,5]diazocin-5-yl)carbamoyl)-1H-indol-5-yl)difluoromethyl)phosphonic acid] | 1 to 10 µM |
| CC(=O)N1CC[C@H]2CC[C@@H](C(=O)N[C@@H](C)c3ccccc3)N2C(=O)[C@@H](NC(=O)c2cc3cc(C(F)(F)P(=O)(O)O)ccc3[nH]2)C1 [Compound 337, ((2-(((5S,8S,10aR)-3-acetyl-6-oxo-8-(((S)-1-phenylethyl)carbamoyl)decahydropyrrolo[1,2-a][1,5]diazocin-5-yl)carbamoyl)-1H-indol-5-yl)difluoromethyl)phosphonic acid] | 1 to 10 µM |
| CC(=O)N1CC[C@H]2CC[C@@H](C(=O)N[C@H](C)c3ccccc3)N2C(=O)[C@@H](NC(=O)c2cc3cc(C(F)(F)P(=O)(O)O)ccc3[nH]2)C1 [Compound 338, ((2-(((5S,8S,10aR)-3-acetyl-6-oxo-8-(((R)-1-phenylethyl)carbamoyl)decahydropyrrolo[1,2-a][1,5]diazocin-5-yl)carbamoyl)-1H-indol-5-yl)difluoromethyl)phosphonic acid] | > 10 µM |
| CC(=O)N1CC[C@H]2CC[C@@H](C(=O)NC(C)(C)c3ccccc3)N2C(=O)[C@@H](NC(=O)c2cc3cc(C(F)(F)P(=O)(O)O)ccc3[nH]2)C1 [Compound 339, ((2-(((5S,8S,10aR)-3-acetyl-6-oxo-8-((2-phenylpropan-2-yl)carbamoyl)decahydropyrrolo[1,2-a][1,5]diazocin-5-yl)carbamoyl)-1H-indol-5-yl)difluoromethyl)phosphonic acid] | > 10 µM |
| CC(=O)N1CC[C@H]2CC[C@@H](C(=O)NC3(c4ccccc4)CC3)N2C(=O)[C@@H](NC(=O)c2cc3cc(C(F)(F)P(=O)(O)O)ccc3[nH]2)C1 [Compound 340, ((2-(((5S,8S,10aR)-3-acetyl-6-oxo-8-((1-phenylcyclopropyl)carbamoyl)deca hydropyrrolo[1,2-a][1,5]diazocin-5-yl)carbamoyl)-1H-indol-5-yl)difluoromethyl)phosphonic acid] | > 10 µM |
| CC(=O)N1CC[C@H]2CC[C@@H](C(=O)NC3(c4ccccc4)CCOCC3)N2C(=O)[C@@H](NC(=O)c2cc3cc(C(F)(F)P(=O)(O)O)ccc3[nH]2)C1 [Compound 341, ((2-(((5S,8S,10aR)-3-acetyl-6-oxo-8-((4-phenyltetrahydro-2H-pyran-4-yl)carbamoyl)decahydropyrrolo[1,2-a][1,5]diazocin-5-yl)carbamoyl)-1H-indol-5-yl)difluoromethyl)phosphonic acid] | 1 to 10 µM |
| CC(=O)N1CC[C@H]2CC[C@@H](C(=O)N(Cc3ccccc3)C3CCCCC3)N2C(=O)[C@@H](NC(=O)c2cc3cc(C(F)(F)P(=O)(O)O)ccc3[nH]2)C1 [Compound 342, ((2-(((5S,8S,10aR)-3-acetyl-8-(benzyl(cyclohexyl)carbamoyl)-6-oxodecahydropyrrolo[1,2-a][1,5]diazocin-5-yl)carbamoyl)-1H-indol-5-yl)difluoromethyl)phosphonic acid] | 1 to 10 µM |
| CC(=O)N1CC[C@H]2CC[C@@H](C(=O)N3CCc4c(F)cccc4C3)N2C(=O)[C@@H](NC(=O)c2cc3cc(C(F)(F)P(=O)(O)O)ccc3[nH]2)C1 [Compound 343, ((2-(((5S,8S,10aR)-3-acetyl-8-(5-fluoro-1,2,3,4-tetrahydroisoquinoline-2-carbonyl)-6-oxodecahydropyrrolo[1,2-a][1,5]diazocin-5-yl)carbamoyl)-1H-indol-5-yl)difluoromethyl)phosphonic acid] | 1 to 10 µM |
| CC(=O)N1CC[C@H]2CC[C@@H](C(=O)N3CCc4cc(F)ccc4C3)N2C(=O)[C@@H](NC(=O)c2cc3cc(C(F)(F)P(=O)(O)O)ccc3[nH]2)C1 [Compound 344, ((2-(((5S,8,10aR)-3-acetyl-8-(6-fluoro-1,2,3,4-tetrahydroisoquinoline-2-carbonyl)-6-oxodecahydropyrrolo[1,2-a][1,5]diazocin-5-yl)carbamoyl)-1H-indol-5-yl)difluoromethyl)phosphonic acid] | > 10 µM |
| CC(=O)N1CC[C@H]2CC[C@@H](C(=O)N3CCc4ccc(F)cc4C3)N2C(=O)[C@@H](NC(=O)c2cc3cc(C(F)(F)P(=O)(O)O)ccc3[nH]2)C1 [Compound 355, ((2-(((5S,8S,10aR)-3-acetyl-8-(7-fluoro-1,2,3,4-tetrahydroisoquinoline-2-carbonyl)-6-oxodecahydropyrrolo[1,2-a][1,5]diazocin-5-yl)carbamoyl)-1H-indol-5-yl)difluoromethyl)phosphonic acid] | > 10 µM |
| CC(=O)N1CC[C@H]2CC[C@@H](C(=O)N3CCc4cccc(F)c4C3)N2C(=O)[C@@H](NC(=O)c2cc3cc(C(F)(F)P(=O)(O)O)ccc3[nH]2)C1 [Compound 356, ((2-(((5S,8S,10aR)-3-acetyl-8-(8-fluoro-1,2,3,4-tetrahydroisoquinoline-2-carbonyl)-6-oxodecahydropyrrolo[1,2-a][1,5]diazocin-5-yl)carbamoyl)-1H-indol-5-yl)difluoromethyl)phosphonic acid] | > 10 µM |
| CC(=O)N1CC[C@H]2CC[C@@H](C(=O)N3CCc4ccc(C)cc4C3)N2C(=O)[C@@H](NC(=O)c2cc3cc(C(F)(F)P(=O)(O)O)ccc3[nH]2)C1 [Compound 357, ((2-(((5S,8S,10aR)-3-acetyl-8-(7-methyl-1,2,3,4-tetrahydroisoquinoline-2-carbonyl)-6-oxodecahydropyrrolo[1,2-a][1,5]diazocin-5-yl)carbamoyl)-1H-indol-5-yl)difluoromethyl)phosphonic acid] | > 10 µM |
| CC(=O)N1CC[C@H]2CC[C@@H](C(=O)N3CCc4ccc(C(F)(F)F)cc4C3)N2C(=O)[C@@H](NC(=O)c2cc3cc(C(F)(F)P(=O)(O)O)ccc3[nH]2)C1 [Compound 358, ((2-(((5S,8S,10aR)-3-acetyl-6-oxo-8-(7-(trifluoromethyl)-1,2,3,4-tetrahydroisoquinoline-2-carbonyl)decahydropyrrolo[1,2-a][1,5]diazocin-5-yl)carbamoyl)-1H-indol-5-yl)difluoromethyl)phosphonic acid] | > 10 µM |
| CC(=O)N1CC[C@H]2CC[C@@H](C(=O)N3Cc4ccccc4C3)N2C(=O)[C@@H](NC(=O)c2cc3cc(C(F)(F)P(=O)(O)O)ccc3[nH]2)C1 [Compound 359, ((2-(((5S,8S,10aR)-3-acetyl-8-(isoindoline-2-carbonyl)-6-oxodecahydropyrrolo[1,2-a][1,5]diazocin-5-yl)carbamoyl)-1H-indol-5-yl)difluoromethyl)phosphonic acid] | 0.1 to 1 µM |
| CC(=O)N1CC[C@H]2CC[C@@H](C(=O)N(C)c3ccccc3)N2C(=O)[C@@H](NC(=O)c2cc3cc(C(F)(F)P(=O)(O)O)ccc3[nH]2)C1 [Compound 360, ((2-(((5S,8S,10aR)-3-acetyl-8-(methyl(phenyl)carbamoyl)-6-oxodecahydropyrrolo[1,2-a][1,5]diazocin-5-yl)carbamoyl)-1H-indol-5-yl)difluoromethyl)phosphonic acid] | > 10 µM |
| CC(=O)N1CC[C@H]2CC[C@@H](C(=O)Nc3ccccc3)N2C(=O)[C@@H](NC(=O)c2cc3cc(C(F)(F)P(=O)(O)O)ccc3[nH]2)C1 [Compound 361, ((2-(((5S,8S,10aR)-3-acetyl-6-oxo-8-(phenylcarbamoyl)decahydropyrrolo [1,2-a][1,5]diazocin-5-yl)carbamoyl)-1H-indol-5-yl)difluoromethyl)phosphonic acid] | > 10 µM |
| CC(=O)N1CC[C@H]2CC[C@@H](C(=O)N(c3ccccc3)c3ccccc3)N2C(=O)[C@@H](NC(=O)c2cc3cc(C(F)(F)P(=O)(O)O)ccc3[nH]2)C1 [Compound 362, ((2-(((5S,8S,10aR)-3-acetyl-8-(diphenylcarbamoyl)-6-oxodecahydropyrrolo[1,2-a][1,5]diazocin-5-yl)carbamoyl)-1H-indol-5-yl)difluoromethyl)phosphonic acid] | 1 to 10 µM |
| O=C(N[C@H]1CCC[C@H]2CC[C@@H](C(=O)N3CCc4ccccc4C3)N2C1=O)c1cc2cc(C(F)(F)P(=O)(O)O)ccc2[nH]1 [Compound 363, (difluoro(2-(((3S,6S,9aS)-5-oxo-3-(1,2,3,4-tetrahydroisoquinoline-2-carbonyl)octahydro-1H-pyrrolo[1,2-a]azepin-6-yl)carbamoyl)-1H-indol-5-yl)methyl)phosphonic acid] | > 10 µM |
